The record followed here is patent publication US20150250786A1, “PYRIMIDINE HYDROXY AMIDE COMPOUNDS AS PROTEIN DEACETYLASE INHIBITORS AND METHODS OF USE THEREOF” (THE TRUSTEES OF THE UNIVERSITY OF PENNSYLVANIA, priority 2012, published 2015).

SMILES strings stand for the structures.

Data set [1] deals with mice. In words: Elevated plus maze (EPM). It is filed as in vivo, mouse. The following applies: acute administration.
Data set [2] concerns the target HDAC1 (Homo sapiens, UniProt Q13547). In words: HDAC enzyme assay, HDAC1. The following applies: selectivity HDAC6 over HDAC1.
In data set [3] the target is HDAC2 (Homo sapiens, UniProt Q92769). In words: HDAC enzyme assay, HDAC2. The following applies: selectivity HDAC6 over HDAC2.
Chain of HDAC2 (Q92769 whole entry): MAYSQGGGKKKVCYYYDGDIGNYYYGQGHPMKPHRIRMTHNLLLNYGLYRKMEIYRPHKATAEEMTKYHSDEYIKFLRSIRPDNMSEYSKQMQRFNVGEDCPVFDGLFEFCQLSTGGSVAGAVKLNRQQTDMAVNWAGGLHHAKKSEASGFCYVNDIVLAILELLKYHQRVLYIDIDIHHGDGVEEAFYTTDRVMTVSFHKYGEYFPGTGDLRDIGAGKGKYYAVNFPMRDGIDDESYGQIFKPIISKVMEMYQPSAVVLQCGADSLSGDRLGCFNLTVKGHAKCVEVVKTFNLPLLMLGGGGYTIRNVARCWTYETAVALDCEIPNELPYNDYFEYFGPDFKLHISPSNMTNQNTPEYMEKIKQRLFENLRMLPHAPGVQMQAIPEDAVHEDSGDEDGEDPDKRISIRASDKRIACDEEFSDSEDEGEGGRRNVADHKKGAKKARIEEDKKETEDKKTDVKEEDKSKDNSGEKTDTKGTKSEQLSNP
The target of data set [4] is HDAC3 (Homo sapiens, UniProt O15379). In words: HDAC enzyme assay, HDAC3. The settings on record: selectivity HDAC6 over HDAC3.
Chain of HDAC3 (O15379 whole entry): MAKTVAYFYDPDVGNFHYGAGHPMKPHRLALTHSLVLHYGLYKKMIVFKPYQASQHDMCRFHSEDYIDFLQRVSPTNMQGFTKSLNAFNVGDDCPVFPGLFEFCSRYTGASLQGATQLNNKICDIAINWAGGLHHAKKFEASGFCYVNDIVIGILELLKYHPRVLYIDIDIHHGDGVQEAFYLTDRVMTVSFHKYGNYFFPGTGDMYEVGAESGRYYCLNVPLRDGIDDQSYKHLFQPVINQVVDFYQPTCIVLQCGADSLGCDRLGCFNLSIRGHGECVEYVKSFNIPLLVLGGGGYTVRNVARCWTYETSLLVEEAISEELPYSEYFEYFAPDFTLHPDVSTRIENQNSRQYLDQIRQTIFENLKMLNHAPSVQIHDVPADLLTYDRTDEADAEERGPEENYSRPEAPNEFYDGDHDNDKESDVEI
Chain of HDAC3 (Q9Y618 395-489 partner limits assumed): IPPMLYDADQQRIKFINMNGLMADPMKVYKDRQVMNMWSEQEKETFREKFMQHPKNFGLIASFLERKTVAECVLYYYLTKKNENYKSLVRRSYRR
For data set [5], the system named is RN46A-B14 serotonergic cell line. In words: α-tubulin K40 acetylation in RN46A-B14 cells (Western blot). In kind it is cell-based, rat. The settings on record: for acetylated (lysine 40) fraction of α-tubulin: 4 hours, TSA 0.6 μM, others 2.5 μM. Here is the method: In FIG. 3, it was observed that subchronic treatment, consisting of 5 treatments at 48, 28, 24, 4 and ½ hours before sacrifice, led to greater increase in tubulin acetylation than did chronic treatment of 1 injection/day for 21 days. For cell culture, RN46B cells were treated for with 0.25, 2.5 or 25 μM drug in DMSO for 1, 4 or 24 hours as indicated. Tukey post-hoc analysis: * P=0.01 to 0.05, ** P=0.001-0.01, ***P<0.001 when compared with vehicle treatment.
Results are shown as percent change normalized to the vehicle treatment condition. The horizontal hard line depicts average and the dotted lines depict SEM of the vehicle treated wells. Representative Western blot images are presented. […] Representative Western blot images are presented. […] The drugs (5 mg/kg) were administered subchronically (at 24 h, 4 h and 30 min prior to sacrifice) to HDAC6 KO and WT littermates. The changes in tubulin acetylation were measured in tissue lysates from cortex (ctx), hippocampus (Hpc), dorsal Raphe nucleus (DRN) and cerebellum (cb). The tubulin acetylation levels in drug-treated mice are expressed as percent change of the vehicle-treated mice of the corresponding genotype. The horizontal lines depict the average tubulin acetylation±SEM in the vehicle treated mice. The representative Western blot images show the changes induced by each drug treatment in the hippocampus (left column) and dorsal raphe (right column) of WT and HDAC6 KO mice.
In contrast to the class I isoforms HDAC2 and 3, which are expressed highly and ubiquitously in the mouse brain, HDAC6 mRNA expression appears to be restricted to a small number of brain areas, with highest signal observed in DRN (FIG. 13f). […] No changes in total α-tubulin expression were detected (FIG. 14a).

For data set [6] the test system is unchanged. In words: Histone H3K9 acetylation in RN46A-B14 cells (Western blot). It is filed as cell-based, rat. The following applies: 4 hours. (In general: Immunoblotting shows a protein as a band on a membrane.)
Data set [7] has as its system α-tubulin acetylation in mouse whole brain lysates. In words: α-tubulin acetylation in whole brain lysates after single i.p. administration. In kind it is in vivo. The following applies: compound 73 5 mg/kg, compound 101 50 mg/kg, tubastatin A 10 mg/kg, 30 min, 1 h, 4 h.
Data set [8] has as its system α-tubulin acetylation in heart. In words: α-tubulin acetylation in heart after single systemic administration. It is filed as in vivo, mouse. The settings on record: 10 mg/kg. As for the experimental part:
The changes were significant at 30 minutes (F3,13=163.4, P<0.0001), 1 hour (F3,13=163.9, P<0.0001) and 4 hours (F3,14=4.703, P=0.0179) after the administrations.

The subject of data set [9] is mice. In words: Open-field test. In kind it is in vivo, mouse. The settings on record: acute; compounds 73, 101 50 mg/kg; tubastatin A 10 mg/kg.
Data set [10] can be described thus: Pharmacokinetics and brain bio-distribution in mice. In kind it is in vivo, mouse. Here is the method: […] Plasma samples were taken from all mice upon sacrifice. Brain samples were taken from the mice sacrificed at 5 and 15 minutes and 1 and 4 hours. The brain samples were homogenized in PBS and centrifuged at 14000 rpm for 5 minutes. The supernatant from the brain homogenate and the plasma samples were injected onto a LC/MS/MS for analysis. The compound level in the samples was determined by a standard curve in the appropriate matrix. Pharmacokinetic parameters were determined from the raw data by WinNonLin.

For data set [11], the system named is mice. In words: Chronic social defeat (CSD) and social interaction test. In kind it is in vivo, mouse. The following applies: after CSD; fluoxetine 20 mg/kg, compound 73 5 mg/kg, compound 101 50 mg/kg. Here is the method:
Additionally, when combined with a dose of Citalopram with lower activity, these compounds seemed to have an additive effect (See FIG. 10). The dose of Citalopram chosen for this experiment was based on literature stating 2 mg/kg should be subactive, but this dose was found still showing an effect. Mice then underwent chronic social defeat stress, in which the mice are exposed to an aggressive resident mouse for 5 minutes daily for 10 days and are then tested on the 11th day in the social interaction test. Mice treated with vehicle for 20 total days, beginning 10 days before the defeat, show reduced time spent in the interaction zone when a target mouse is present when compared with control mice. […] The percent of mice found to be resilient, defined as spending more time in the interaction zone than the lowest control (i.e. ˜52 s), is higher in HDAC6 inhibitor groups. All behavior testing done using NIH Swiss mice, age 6-10 weeks. Tukey post-hoc analysis: * P=0.01 to 0.05, ** P=0.001-0.01, ***P<0.001 compared with vehicle treated mice.
The effects were observed 30 minutes after acute 50 mg/kg i.p. injection, but not for the lower dose (5 mg/kg). Combination of subactive doses of the HDAC6 selective inhibitors (5 mg/kg) and citalopram (0.5 mg/kg) produced robust potentiation of anti-immobility activity (n=8-29 per condition). […] No difference was observed between HDAC6 WT and KO when treated with the vehicle (n=6-15 per condition). FIG. 16c is a timeline showing treatment period, social defeat and social interaction (SI) testing.
A pro-resilient phenotype in the mouse CSD paradigm after serotonin-selective KO of HDAC6 was previously reported (Espallergues et al, 2012). Whether a chronic pharmacological inhibition of HDAC6 can replicate that phenotype is studied. […] On day 21, 24 h after the last injection, the mice were tested in the social interaction test. […] Significant effects were also observed when data was evaluated in terms of proportion of mice reaching criterion for resiliency.

The subject of data set [12] is histone H3 lysine 9 acetylation. In words: Histone H3K9 acetylation in vivo (Western blot, ChIP). Further details: species or system mouse. The settings on record: hippocampus; repeated i.p.; compound 73 5 mg/kg, sodium butyrate 1.2 g/kg.

Chain of HDAC1 (Q13547 whole entry): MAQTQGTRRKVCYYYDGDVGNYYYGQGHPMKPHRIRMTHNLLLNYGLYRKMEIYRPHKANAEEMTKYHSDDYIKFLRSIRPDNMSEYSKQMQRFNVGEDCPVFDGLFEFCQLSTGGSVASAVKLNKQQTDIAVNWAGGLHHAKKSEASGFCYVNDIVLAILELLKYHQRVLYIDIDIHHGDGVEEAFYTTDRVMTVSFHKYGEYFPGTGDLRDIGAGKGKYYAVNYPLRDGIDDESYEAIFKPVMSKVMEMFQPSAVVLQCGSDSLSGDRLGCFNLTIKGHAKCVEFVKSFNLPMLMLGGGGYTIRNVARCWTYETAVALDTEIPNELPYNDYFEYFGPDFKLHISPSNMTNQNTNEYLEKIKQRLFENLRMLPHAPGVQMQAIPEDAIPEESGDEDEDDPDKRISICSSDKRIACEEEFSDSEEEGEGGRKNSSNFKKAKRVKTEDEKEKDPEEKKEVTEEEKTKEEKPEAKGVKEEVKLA

For `CNC1=Nc2ccc(Cl)cc2C(c2ccccc2)=[N+]([O-])C1` [CDP, reference compound], the “behavioral changes / time in the open arms of the maze” value in data set [1] is “dramatically increased”.
On to `O=C(NO)c1cnc(NC2(c3ccc(F)cc3)CC2)nc1` [Compound 81], for which the “HDAC1 fold versus HDAC6 (in brackets)” value in data set [2] is “(18.3x)”. Besides, the “HDAC2 fold versus HDAC6 (in brackets)” value in [3] was “(30.2x)”. For the same compound, in data set [4], the “HDAC3 fold versus HDAC6 (in brackets)” value is “(46.4x)”.
Turning to `O=C(NO)c1cnc(NC2(c3ccccc3)CCCCC2)nc1` [Compound 84], the “HDAC1 fold versus HDAC6 (in brackets)” value in [2] was “(302.2x)”. Besides, in data set [3], the “HDAC2 fold versus HDAC6 (in brackets)” value was “(403.4x)”. For the same compound, the “HDAC3 fold versus HDAC6 (in brackets)” value in [4] is listed as “(613x)”.
On the same counts, the results for `O=C(NO)c1cnc(NC2(c3ccccc3)CCCC2)nc1` [Compound 88] are “(215.2x)”, “(296.1x)” and “(679.1x)”.
On the same counts, the results for `O=C(NO)c1cnc(NC2(c3ccccc3Cl)CC2)nc1` [Compound 90] are “(19.9x)”, “(26.2x)” and “(30.2x)”.
With `O=C(NO)c1cnc(NC2(c3ccccc3C(F)(F)F)CC2)nc1` [Compound 91], the “HDAC1 fold versus HDAC6 (in brackets)” value in data set [2] was “(72.3x)”. Further, the “HDAC2 fold versus HDAC6 (in brackets)” value in [3] is on record as “(130.2x)”. Moreover, in data set [4], the “HDAC3 fold versus HDAC6 (in brackets)” value is recorded as “(169.4x)”.
`Cc1ccc(C2(Nc3ncc(C(=O)NO)cn3)CC2)cc1` [Compound 93]: the “HDAC1 fold versus HDAC6 (in brackets)” value in [2] is “(25.9x)”. In addition, in data set [3], the “HDAC2 fold versus HDAC6 (in brackets)” value was “(34.7x)”. Moreover, the “HDAC3 fold versus HDAC6 (in brackets)” value in [4] is recorded as “(51x)”.
On to `COc1ccc(C2(Nc3ncc(C(=O)NO)cn3)CC2)cc1` [Compound 97], for which the “HDAC1 fold versus HDAC6 (in brackets)” value in data set [2] is recorded as “(8.3x)”. The “HDAC2 fold versus HDAC6 (in brackets)” value in [3] is given as “(12.1x)”. The “HDAC3 fold versus HDAC6 (in brackets)” value in data set [4] is given as “(16.4x)”.
As for `O=C(NO)c1cnc(NC2(c3ccc(F)cc3)CCCCC2)nc1` [Compound 100], the “HDAC1 fold versus HDAC6 (in brackets)” value in data set [2] is reported as “(339.9x)”. Further, the “HDAC2 fold versus HDAC6 (in brackets)” value in data set [3] was “(504.7x)”. Besides, the “HDAC3 fold versus HDAC6 (in brackets)” value in data set [4] is reported as “(1428.4x)”.
With `CC(/C=C/C(=O)NO)=C\[C@@H](C)C(=O)c1ccc(N(C)C)cc1` [TSA, trichostatin A, reference compound], the “acetylated (lysine 40) fraction of α-tubulin” value in [5] is given as “increases”. Moreover, the “increase in acetylation of histone H3 at lysine 9” value in data set [6] (TSA 0.6 μM) was 94%.
One may read the Cmax as the maximum level reached in the sampled fluid or tissue. On to `CN1CCc2c(c3ccccc3n2Cc2ccc(C(=O)NO)cc2)C1` [Tubastatin A, reference compound], for which, in data set [5], the “increase in α-tubulin acetylation in tissue culture” value is recorded as “about 400%” and the “acetylated (lysine 40) fraction of α-tubulin” value is recorded as “increases”. Further, the “change in histone H3K9 acetylation” value in data set [6] (2.5 μM) was “no significant change”. The “α-tubulin acetylation in whole brain lysates” value in data set [7] is on record as “did not significantly change”. In [8], the “increase of α-tubulin acetylation in heart” value is 268%. The “exploratory activity in novel open-field arena” value in data set [9] is listed as “did not exhibit changes”. Moreover, the “30 min plasma concentration (ng/ml) - 5 mg/kg” value in data set [10] (5 mg/kg) stood at 278 ng/mL. In addition, in [10] (mice, acute i.p. dosing), the “Cmax” value came to 496 ng/mL and the “T½ plasma” value was determined as 2 h. In [10] (mouse, in vivo), this compound gave a plasmatic half-life of 2 h.
Regarding `CNCCC(Oc1ccc(C(F)(F)F)cc1)c1ccccc1` (stereo not drawn) [fluoxetine, reference compound], the “percentage of resilient mice” value in [11] worked out at 60%.
Turning to `CCCC(=O)[O-].[Na+]` [sodium butyrate, reference compound], the “histone H3K9 acetylation enrichment at promoter DNA (cFOS, BDNF promoter 4), ChIP” value in data set [12] is listed as “increases in enrichment”.
